From patent US20230287027A1, “ADJUVANT WITH TLR4 AGONIST ACTIVITY” (Sumitomo Pharma Co., Ltd, priority 2020, published 2023)

Experiments:
human TLR4 = molecular target: T1, human TLR4 (Homo sapiens, UniProt O00206+Q9Y6Y9); test: Human TLR4 reporter gene assay (Test 1); assay type: cell-based; conditions: HEK-Blue hTLR4 cell line, SEAP reporter, 37° C. 16-20 hours, 0.1% DMSO; concentration giving half of maximal SEAP level induced with LPS
T1 construct: host or cells: HEK-Blue hTLR4 cell line
Description: Human TLR4 Reporter Gene Assay
HEK-Blue™ hTLR4 cell line (Invivogen Corporation) is a stably co-transfected cell line which expresses human TLR4, MD2, CD14, and secretory alkaline phosphatase (SEAP) reporter gene under the transcriptional regulation of an NF-κB response element. The TLR4 expression of the cell line has been already tested by RT-PCR, flow cytometry. Transfectants with stable expression were selected using the antibiotic HEK-Blue™ Selection. TLR signaling leads to the translocation of NF-κB and the activation of the promoter results in expression of the SEAP gene. TLR4-specific activation was assessed by determining the level of SEAP produced following incubation of the cells at 37° C. for 16-20 hours with each compound prepared in Examples and Reference examples in the presence of 0.1% (v/v) DMSO. The human TLR4 activity for the present compound was assessed by human TLR4 reporter gene assay, and the concentration of the compound concentration which produced half of the maximal level of SEAP induced with lipopolysaccharide (LPS) was determined as EC50.

OVA-specific IgG2c = test: Test 3: OVA-specific IgG2c in serum of immunized mice by ELISA; assay type: in vivo, C57BL/6 male mouse; conditions: mouse, intramuscular with OVA, liposome formulation, 10 or 100 μg/mouse, two immunizations, serum one week after the additional immunization; compared with the negative control group
Method: FIG. 1 is a graph showing the results of measuring OVA-specific IgG2c in immunized mouse serum in mice to which the formulation prepared in Example 6 or 7 was intramuscularly administered, by ELISA in Test 3. The vertical axis indicates the antibody titer of OVA-specific IgG2c in serum. The horizontal axis indicates the administered sample (administered dose in parentheses). 1: negative control group (phosphate buffered saline), 2: Example 6 administration group (the compound of Example 1, 10 μg/mouse), 3: Example 6 administration group (the compound of Example 1, 100 μg/mouse), 4: Example 7 administration group (the compound of Example 2, 10 μg/mouse), 5: Example 7 administration group (the compound of Example 2, 100 μg/mouse).
FIG. 2 is a graph showing the results of measuring OVA-specific IgG2c in immunized mouse serum in mice to which the formulation prepared in Reference Example 16 or Example 6 was intramuscularly administered, by ELISA in Test 3. The vertical axis indicates the antibody titer of OVA-specific IgG2c in serum. The horizontal axis indicates the administered sample (administered dose in parentheses). […]
An equal mixture of ovalbumin (OVA) (2 mg/mL) as an antigen and the formulation prepared in Example 6, Example 7, or Reference example 16 (containing 0.2 or 2 mg/mL the compound of Example 1, Example 2, or Reference example 9) was intramuscularly administered to the gastrocnemius of a 7-week-old C57BL/6 male mouse (100 μL/mouse), which was defined as the first immunization. […] The OVA-specific IgG2c value in each serum was measured by the following ELISA method. To 96-well plate, OVA solution (SIGMA) was added, 1% Skim Milk (Wako) was added for blocking, the serum sample which was diluted with phosphate buffer solution was added, caprine antimouse IgG2c (Southern Bio) as the secondary antibody was added, SureBlue™ TMB Micrewell Peroxidase Substrate (KPL) was added, and then the product of the enzymatic reaction was quantified with a microplate reader.

spleen cell of the mouse = test: Test 4: T cell populations in spleen cells of immunized mice by flow cytometry; assay type: in vivo; conditions: intramuscular with OVA, liposome formulation, compared with the negative control group
Method: The equal mixture prepared in Test 3 of ovalbumin (OVA) (2 mg/mL) and the formulation prepared in Example 6, Example 7, or Reference example 16 (containing 0.2 or 2 mg/mL the compound of Example 1, Example 2, or Reference example 9) was administered to a mouse (100 μL/mouse). The spleen cell of the mouse was prepared, OVA and Brefeldin A (eBioscience) were added the cell, and the cell was cultured overnight. The collected cell was stained with APC-labeled antimouse CD3e antibody (Invitrogen), PerCP-labeled antimouse CD4 antibody (BioLegend), and Fixable Viability Dye eFluor™ 520 (invitorgen), and fixed with Fixation/Permeabilization buffer (Invitrogen). The cell was treated with Permeabilization buffer (Invitrogen), and then stained with antibody cocktail BV421-labeled anti-IFN-γ antibody (BioLegend), PE-Cy7-labeled anti-IL-2 antibody (eBioscience), and PE-labeled TNF-α (BioLegend). The data were taken and analyzed with FACS Cant II (BD Biosciences) and FLOWJO software (TreeStar).
Separately, the spleen cell was stained with V450-labled antimouse CD3e antibody (invitrogen), Alexa Fluor™ 647-labeled antimouse CD8 antibody (MBL), PE-labeled H-2Kb OVA Tetramer-SIINFEKL (MBL), and Fixable Viability dye eFluor 520 (invitrogen). The data were taken and analyzed with FACS Cant II (BD Biosciences) and FLOWJO software (TreeStar).
Further separately, the spleen cell was stained with V450-labeled antimouse CD3e antibody (invitrogen), Alexa Fluor™ 647-labeled antimouse CD8 antibody (MBL), PE-Cy7-labeled antimouse CD44 antibody (Invitrogen), PerCP-Cy5.5-labeled antimouse CD62L antibody (Invitrogen), and Fixable Viability dye eFluor 520 (Invitrogen). The data were taken and analyzed with FACS Cant II (BD Biosciences) and FLOWJO software (TreeStar).

T1 sequence (O00206 24-839): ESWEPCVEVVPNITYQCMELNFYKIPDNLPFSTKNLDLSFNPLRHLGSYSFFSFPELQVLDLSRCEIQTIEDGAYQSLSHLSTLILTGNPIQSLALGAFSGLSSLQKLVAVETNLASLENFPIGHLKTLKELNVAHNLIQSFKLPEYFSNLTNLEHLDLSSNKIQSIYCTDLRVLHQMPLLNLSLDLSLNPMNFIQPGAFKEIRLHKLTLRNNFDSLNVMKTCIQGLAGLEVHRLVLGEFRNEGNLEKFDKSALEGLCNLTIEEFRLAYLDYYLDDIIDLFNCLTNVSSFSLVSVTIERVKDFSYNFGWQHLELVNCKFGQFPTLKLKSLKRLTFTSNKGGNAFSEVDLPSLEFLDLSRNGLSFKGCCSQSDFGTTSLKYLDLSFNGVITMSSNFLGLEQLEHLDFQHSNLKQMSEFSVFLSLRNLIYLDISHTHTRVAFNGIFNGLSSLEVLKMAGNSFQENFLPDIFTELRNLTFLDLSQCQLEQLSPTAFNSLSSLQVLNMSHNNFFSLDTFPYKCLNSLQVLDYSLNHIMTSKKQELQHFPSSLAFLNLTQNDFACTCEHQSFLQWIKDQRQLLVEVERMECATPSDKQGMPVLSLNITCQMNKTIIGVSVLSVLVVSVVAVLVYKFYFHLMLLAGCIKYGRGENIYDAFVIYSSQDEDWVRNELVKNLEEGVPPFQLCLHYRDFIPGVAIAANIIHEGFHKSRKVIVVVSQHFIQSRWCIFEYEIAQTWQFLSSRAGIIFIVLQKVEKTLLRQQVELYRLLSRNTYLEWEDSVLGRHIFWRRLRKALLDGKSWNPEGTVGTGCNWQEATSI
T1 sequence (Q9Y6Y9 17-160 limits assumed): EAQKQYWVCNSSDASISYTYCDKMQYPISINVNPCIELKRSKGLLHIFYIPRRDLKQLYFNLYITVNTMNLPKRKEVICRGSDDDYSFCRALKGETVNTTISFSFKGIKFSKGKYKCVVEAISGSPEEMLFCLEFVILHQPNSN

| Structure (SMILES) | EC50 (human TLR4) | OVA-specific IgG2c induction (OVA-specific IgG2c) | percentage of CD8-positive effector memory T-lymphocyte (spleen cell of the mouse) | percentage of MHC-restricted OVA-specific CD8-positive T-lymphocyte (OVA tetramer-positive CD8T cell) (spleen cell of the mouse) | percentage of OVA-specific type 1 helper T-cell (spleen cell of the mouse) |
| --- | --- | --- | --- | --- | --- |
| CCCCCCCCCCC[C@H](CC(=O)NC1C(OC[C@@H](NC(=O)C[C@@H](CCCCCCCCCCC)OC(=O)CCCCCCCCC)C(=O)O)OC(CO)C(O)C1OC(=O)C[C@@H](CCCCCCCCCCC)OC(=O)CCCCCCCCc1ccccc1)OC(=O)CCCCCCCCC (stereo partly drawn) [Example 1, (2R)-2-{[(3R)-3-(Decanoyloxy)tetradecanoyl]amino}-3-{[3-{[(3R)-3-(decanoyloxy)tetradecanoyl]amino}-5-hydroxy-6-(hydroxymethyl)-4-({(3R)-3-[(9-phenylnonanoyl)oxy]tetradecanoyl}oxy)oxan-2-yl]oxy}propanoic acid] | 0.0435 µM | significantly strong | significantly increased | significantly increased | significantly increased |
| CCCCCCCCCCC[C@H](CC(=O)NC1C(OC[C@H](NC(=O)C[C@@H](CCCCCCCCCCC)OC(=O)CCCCCCCCC)C(=O)O)OC(CO)C(O)C1OC(=O)C[C@@H](CCCCCCCCCCC)OC(=O)CCCCCCCCc1ccccc1)OC(=O)CCCCCCCCC (stereo partly drawn) [Example 2, (2S)-2-{[(3R)-3-(decanoyloxy)tetradecanoyl]amino}-3-{[3-{[(3R)-3-(decanoyloxy)tetradecanoyl]amino}-5-hydroxy-6-(hydroxymethyl)-4-({(3R)-3-[(9-phenylnonanoyl)oxy]tetradecanoyl}oxy)oxan-2-yl]oxy}propanoic acid] | 0.015 µM | significantly strong | significantly increased | significantly increased | significantly increased |
| CCCCCCCCCCC[C@H](CC(=O)NC1C(OC[C@@H](NC(=O)C[C@@H](CCCCCCCCCCC)OC(=O)CCCCCCCCC)C(=O)O)OC(CO)C(OP(=O)(O)O)C1OC(=O)C[C@@H](CCCCCCCCCCC)OC(=O)CCCCCCCCc1ccccc1)OC(=O)CCCCCCCCC (stereo partly drawn) [Reference example 9, (2R)-2-{[(3R)-3-(Decanoyloxy)tetradecanoyl]amino}-3-{[3-{[(3R)-3-(decanoyloxy)tetradecanoyl]amino}-6-(hydroxymethyl)-4-({(3R)-3-[(9-phenylnonanoyl)oxy]tetradecanoyl}oxy)-5-(phosphonooxy)oxan-2-yl]oxy}propanoic acid, reference compound] | 0.0439 µM | significantly strong | significantly increased | significantly increased | significantly increased |
